# Results taken from ChEMBL document CHEMBL1201862, “PubChem BioAssay data set” (2004).
# Activity calls are given as the source filed them.
# Columns and labels:
# [1] = molecular target: Eukaryotic translation initiation factor 4H (Homo sapiens, UniProt Q15056); experiment: inhibitors of translation initiation factor eIF4H – SAR follow-up (AID 435011); assay type: functional
# [2] = molecular target: Polyadenylate-binding protein 1 (Homo sapiens, UniProt P11940); experiment: PABP inhibition in translation initiation, SAR follow-up (AID 435018); assay type: functional
# X-box-binding protein 1 = X-box-binding protein 1 (Homo sapiens, UniProt P17861); assay type: functional, Cricetulus griseus;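 further: confirmatory dose-response counter-screen serving a CHOP assay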
# Genome polyprotein = Genome polyprotein (dengue virus type 2, UniProt P29990); experiment: flavivirus cap methylation enzyme inhibition – biochemical, confirmation dose response, primary screen (AID 588689); assay type: functional
# Bcl-2-like protein 10 = molecular target: T1, Bcl-2-like protein 10 (Homo sapiens, UniProt Q9HD36); experiment: Bcl-B/TR3 peptide binding disruption – biochemical, fluorescence polarization, FITC-TR3 peptide, selectivity assay for Bfl-1 inhibitor project, primary screen (AID 748);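 further: fluorescence polarization from a fluorescein-labelled TR3 peptide binding purified Bcl-B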
# T1 sequence (Q9HD36 whole entry): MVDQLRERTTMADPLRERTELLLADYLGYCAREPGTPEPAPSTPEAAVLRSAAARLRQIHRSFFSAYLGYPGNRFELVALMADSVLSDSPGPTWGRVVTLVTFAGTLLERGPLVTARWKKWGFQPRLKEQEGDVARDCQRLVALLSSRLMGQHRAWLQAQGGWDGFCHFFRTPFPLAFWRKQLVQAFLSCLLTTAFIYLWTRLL
# [3] = Trypanosoma cruzi growth suppression in host cells – NIH3T3 host cells, beta-gal luminescence, confirmation (AID 2044); assay type: functional, cell-based;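 further: intracellular parasites grown in NIH/3T3 mouse fibroblasts as host cells; luminescent beta-galactosidase reporter signal from transgenic T. cruzi replicating inside host cells; inhibitors lower the luminescence signal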
# [4] = NIH3T3 cell viability loss – ATP luminescence, mouse fibroblasts, counter-screen, dose response (AID 2010); assay type: functional, cell-based;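 further: cells exposed to compound for about 90 hours before reading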
# [5] = molecular target: T2, Corticotropin-releasing factor receptor 2/Corticotropin-releasing factor-binding protein (Homo sapiens, UniProt P24387+Q13324); experiment: activators of CRF receptor 2 with binding protein – uHTS hits, confirmation (AID 602473); assay type: functional; details: read-out: EC50_Mean
# T2 sequence (Q13324 whole entry): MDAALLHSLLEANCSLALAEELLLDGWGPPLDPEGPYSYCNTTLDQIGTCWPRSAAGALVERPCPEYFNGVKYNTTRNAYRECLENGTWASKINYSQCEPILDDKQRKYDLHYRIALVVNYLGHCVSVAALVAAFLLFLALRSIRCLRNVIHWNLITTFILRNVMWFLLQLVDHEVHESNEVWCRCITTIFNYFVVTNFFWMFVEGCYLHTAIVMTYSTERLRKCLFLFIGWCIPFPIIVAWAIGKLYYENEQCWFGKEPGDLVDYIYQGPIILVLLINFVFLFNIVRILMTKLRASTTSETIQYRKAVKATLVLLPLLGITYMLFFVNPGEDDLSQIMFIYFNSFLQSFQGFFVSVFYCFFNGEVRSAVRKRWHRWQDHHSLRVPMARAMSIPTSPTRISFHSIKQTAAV
# T2 sequence (P24387 whole entry): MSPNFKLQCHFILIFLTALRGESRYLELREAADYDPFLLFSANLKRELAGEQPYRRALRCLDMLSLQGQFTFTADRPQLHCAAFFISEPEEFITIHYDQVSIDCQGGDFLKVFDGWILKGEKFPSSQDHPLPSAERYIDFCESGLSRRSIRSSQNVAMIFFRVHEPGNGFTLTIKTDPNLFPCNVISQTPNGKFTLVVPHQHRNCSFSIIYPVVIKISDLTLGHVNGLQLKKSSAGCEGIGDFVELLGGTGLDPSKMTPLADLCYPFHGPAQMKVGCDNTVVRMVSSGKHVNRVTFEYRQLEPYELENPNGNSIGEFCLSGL
# [6] = molecular target: Acyl-homoserine lactone acylase PvdQ (Pseudomonas aeruginosa (strain LESB58), UniProt Q9I194); experiment: PvdQ acylase enzyme activity blockers – biochemical, fluorescence, plate reader and imaging, cherry-picks, dose response (AID 493231)
# [7] = molecular target: E3 ubiquitin-protein ligase XIAP (Homo sapiens, UniProt P98170); experiment: Counter Screen using XIAP-Bir3 for Chemical Antagonists of Bir1/2 domains of IAP-family anti-apoptotic proteins. [Related pubchem assays (depositor defined):AID1018, AID1449, AID1514, AID1638, AID1749, AID1750, AID488957, AID488963]
# [8] = molecular target: T3, Carboxy-terminal domain RNA polymerase II polypeptide A small phosphatase 1 (Homo sapiens, UniProt Q9GZU7); experiment: CTDSP1 inhibitors, concentration-response, biochemical, absorbance readout, ultra-high-throughput screen actives (AID 540297); assay type: functional
# T3 sequence (Q9GZU7 whole entry): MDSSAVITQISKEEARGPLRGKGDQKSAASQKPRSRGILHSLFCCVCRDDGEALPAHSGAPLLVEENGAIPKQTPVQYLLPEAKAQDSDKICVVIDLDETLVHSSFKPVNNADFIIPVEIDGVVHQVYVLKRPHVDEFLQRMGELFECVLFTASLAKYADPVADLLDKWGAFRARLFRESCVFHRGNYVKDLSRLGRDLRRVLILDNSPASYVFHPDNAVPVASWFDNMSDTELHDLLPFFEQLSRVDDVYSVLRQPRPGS
# CAAX prenyl protease 2 = CAAX prenyl protease 2 (Saccharomyces cerevisiae S288c, UniProt Q03530); assay type: biochemical
# [9] = test system: Streptococcus sp. 'group A'; experiment: Streptococcus pyogenes SK(-)GAS viability under kanamycin – luminescence, BacTiterGlo, confirmation, counter-screen for streptokinase expression inhibitor project, dose response (AID 1900); assay type: functional, organism-based
# Streptokinase A = molecular target: T4, Streptokinase A (Streptococcus pyogenes serotype M1, UniProt P10520); experiment: viability-normalized secreted streptokinase activity reduction – plasminogen activation absorbance, OD405, dose response (AID 1914); assay type: functional, Streptococcus pyogenes M1 GAS;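 further: secreted streptokinase activity via plasminogen activation per viability signal from cell pellet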
# T4 sequence (P10520 whole entry): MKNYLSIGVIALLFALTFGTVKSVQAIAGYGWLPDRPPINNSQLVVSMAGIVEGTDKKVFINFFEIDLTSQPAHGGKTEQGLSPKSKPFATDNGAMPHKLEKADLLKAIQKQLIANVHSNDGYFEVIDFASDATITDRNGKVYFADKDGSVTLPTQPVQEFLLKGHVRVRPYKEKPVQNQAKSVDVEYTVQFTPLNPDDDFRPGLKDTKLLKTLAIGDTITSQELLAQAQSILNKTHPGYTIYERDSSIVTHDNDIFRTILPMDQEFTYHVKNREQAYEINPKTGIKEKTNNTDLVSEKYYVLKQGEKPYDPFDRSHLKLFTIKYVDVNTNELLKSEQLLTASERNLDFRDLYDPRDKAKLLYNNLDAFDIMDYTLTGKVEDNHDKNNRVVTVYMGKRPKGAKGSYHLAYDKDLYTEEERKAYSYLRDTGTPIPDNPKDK
# Prothrombin = Prothrombin (Homo sapiens, UniProt P00734); experiment: Thrombin 1536 HTS Dose Response Confirmation. [Related pubchem assays: 1046 (Thrombin 1536 HTS; hits were confirmed in this assay)]; assay type: functional
# Streptococcus = experiment: GAS UMAA2166 growth inhibition – luminescence, BacTiterGlo, counter-screen for streptokinase expression inhibitor project, dose response (AID 1915); assay type: functional, organism-based;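 further: potency for reduction of bacterial viability or growth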
# [10] = molecular target: G-protein coupled receptor 55 (Homo sapiens, UniProt Q9Y2T6); experiment: selective activators of receptor GPR55 – imaging, U2OS cells, beta-arrestin-GFP redistribution, primary screen (AID 1961); assay type: functional
# Cytochrome P450 2D6 = Cytochrome P450 2D6 (Homo sapiens, UniProt P10635);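 further: CYP2D6 member of a cytochrome P450 panel assay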
# Cytochrome P450 2C9 = Cytochrome P450 2C9 (Homo sapiens, UniProt P11712)
# Coagulation factor XII = molecular target: T5, Coagulation factor XII (Homo sapiens, UniProt P00748); experiment: activated coagulation factor XII inhibitor potency, concentration-effect curve, cell-free (AID 716); assay type: functional
# T5 sequence (P00748 whole entry): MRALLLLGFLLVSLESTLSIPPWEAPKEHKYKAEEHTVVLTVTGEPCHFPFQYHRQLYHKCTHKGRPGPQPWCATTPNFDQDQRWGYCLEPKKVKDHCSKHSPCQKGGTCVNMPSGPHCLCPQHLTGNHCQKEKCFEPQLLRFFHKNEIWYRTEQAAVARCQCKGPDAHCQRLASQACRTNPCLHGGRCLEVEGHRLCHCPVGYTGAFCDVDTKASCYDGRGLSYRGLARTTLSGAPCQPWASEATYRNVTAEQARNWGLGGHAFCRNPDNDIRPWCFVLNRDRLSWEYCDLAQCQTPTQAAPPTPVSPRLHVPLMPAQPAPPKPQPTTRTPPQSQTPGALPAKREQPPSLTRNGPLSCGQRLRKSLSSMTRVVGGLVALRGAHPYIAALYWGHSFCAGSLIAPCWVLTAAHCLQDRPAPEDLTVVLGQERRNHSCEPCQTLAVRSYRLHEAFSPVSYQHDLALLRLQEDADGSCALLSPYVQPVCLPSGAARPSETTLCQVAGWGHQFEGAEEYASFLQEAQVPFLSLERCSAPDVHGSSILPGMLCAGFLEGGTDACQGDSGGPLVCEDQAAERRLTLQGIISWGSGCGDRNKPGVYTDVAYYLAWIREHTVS
# [11] = molecular target: 1-acylglycerol-3-phosphate O-acyltransferase ABHD5/Perilipin-5 (Homo sapiens, UniProt Q00G26+Q8WTS1); experiment: Luminescence-based biochemical high throughput dose response assay for inhibitors of the interaction of the lipase co-activator protein, abhydrolase domain containing 5 (ABHD5) with perilipin-5 (MLDP; PLIN5) (2K validation set). [Related pubchem assays (depositor defined):AID493035, AID493241]
# Perilipin-1/ABHD5 = Perilipin-1/ABHD5 (Homo sapiens, UniProt O60240+Q8WTS1); experiment: Luminescence-based biochemical high throughput dose response assay for inhibitors of the interaction of the lipase co-activator protein, abhydrolase domain containing 5 (ABHD5) with perilipin-1 (PLIN1) (2K validation set). [Related pubchem assays (depositor defined):AID493027, AID493057]
# [12] = molecular target: Melanin-concentrating hormone receptor 1 (Homo sapiens, UniProt Q99705); experiment: Late-stage fluorescence-based counterscreen for antagonists of the G-protein coupled receptor 7 (GPR7): cell-based dose response assay to identify antagonists of the melanin-concentrating hormone receptor 1 (MCHR1). [Related pubchem assays (depositor defined):AID1861, AID1880, AID1952, AID2148, AID2251, AID2257, AID485339]; assay type: functional;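 further: stimulated with 30 nM MCH peptide agonist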
# Protein Rev = Protein Rev (Human immunodeficiency virus type 1 group M subtype B (isolate HXB2)(HIV-1), UniProt P04618); experiment: blockers of HIV Rev/RRE RNA complex – biochemical, fluorescence polarization, HIV-1, dose response (AID 434976); set-up: species or system Human immunodeficiency virus 1
# [13] = molecular target: Female germline-specific tumor suppressor gld-1 (Caenorhabditis elegans, UniProt Q17339); experiment: blockers of GLD-1/TGE RNA complex formation – biochemical, fluorescence polarization, C. elegans, dose response (AID 2802);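 further: fluorescence polarization of labeled TGE RNA bound by purified gld-1 protein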
# [14] = molecular target: Induced myeloid leukemia cell differentiation protein Mcl-1 (Homo sapiens, UniProt Q07820); assay type: functional
# [15] = microbe, parasite or virus in culture; assay type: functional; details: Mycobacterium tuberculosis
# [16] = viability of PTEN-deleted HCT116 cells – cell-based, HCT116 PTEN knockout, dose response (AID 1047); assay type: functional;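 further: HCT116 colon tumor cells with PTEN knocked out; cells exposed to compound for 60 hours before readout; potency for loss of cell viability measured by luminescence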
# [17] = viability of HCT116 lacking mutant beta-catenin – cell-based, human colon tumor, dose response (AID 1045); assay type: functional;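 further: HCT116 colon tumor cells with beta catenin knocked out; cells exposed to compound for 60 hours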
# Nonstructural protein 1 = Nonstructural protein 1 (Influenza A virus, UniProt Q194T2); assay type: functional, Influenza A virus (A/California/07/2009(H1N1))
smiles,measurement,setting,value
COc1ccc(C(=O)OCC(=O)Nc2ccc([N+](=O)[O-])cc2OC)c(O)c1,IC50,[1],> 100 µM (inactive)
same,IC50,[2],> 100 µM (inactive)
CSC(SC)=C(C#N)C(=O)c1ccccc1,Absolute IC50 (XBP1),X-box-binding protein 1,10 µM
same,IC50,Genome polyprotein,84.6 µM (active)
Cc1cc2c(cc1C)NC(c1c(C)n(C)n(-c3ccccc3)c1=O)C1=C(O)CC(C)(C)CC1=N2 (configuration not stated),IC50,Bcl-2-like protein 10,> 1.56 µM (inactive)
same,EC50,[3],2.27 µM (active)
same,EC50,[4],> 30 µM (not active)
same,EC50,[5],> 53 µM (inactive)
CCOC(=O)c1cnc(-c2ccccc2)nc1N,AC50,[6],11.6 µM (active)
Cc1ccccc1NC(=O)CN1C(=O)N/C(=C\c2ccccc2OCc2ccc(C(=O)O)cc2)C1=O,IC50,[7],> 20 µM (inactive)
same,IC50,[1],7.28 µM (active)
same,IC50,[2],78.5 µM (active)
same,IC50,[8],4.3 µM (active)
COc1ccc(C2Nc3ccccc3C(=O)N2Cc2ccccc2)cc1COc1ccccn1 (configuration not stated),AC50,CAAX prenyl protease 2,5.83 µM (active)
Cc1ccccc1-n1cnc2cc(NCc3cccs3)ccc21,EC50,[9],16.8 µM (active)
same,EC50,Streptokinase A,87.8 µM (active)
same,IC50,Prothrombin,> 50 µM (not active)
same,EC50,Streptococcus,> 150 µM (not active)
same,EC50,[10],> 32 µM (inactive)
same,AC50,Cytochrome P450 2D6,2.24 µM (inconclusive)
same,AC50,Cytochrome P450 2C9,39.8 µM (inconclusive)
N#CCn1c(C2CCCCC2)nc2ccccc2c1=O,AC50,[6],13.1 µM (active)
Cn1c(=O)c(C(=O)CN2CCCc3ccccc32)c(N)n(Cc2ccccc2)c1=O,IC50,Coagulation factor XII,> 50 µM (inactive)
COc1ccc(/C=C/C(=O)c2cc3cccc(OC)c3oc2=O)cc1,IC50,[11],3.3 µM (active)
same,IC50,Perilipin-1/ABHD5,3.34 µM (active)
CCOCC(=O)Nc1cc(-c2cn3cccnc3n2)ccc1C,IC50,Coagulation factor XII,> 50 µM (inactive)
same,AC50,Cytochrome P450 2C9,22.4 µM (inconclusive)
CC(C)c1nnc(N2C(=O)c3oc4ccccc4c(=O)c3C2c2ccco2)s1 (configuration not stated),Absolute IC50 (XBP1),X-box-binding protein 1,10 µM
COc1ccc(Oc2c(Cl)cnn(-c3ccc(C4CC4)cc3)c2=O)cc1,IC50,[12],6.8 µM (active)
CN(C)c1ccc(/N=C2\C(=O)N(C)c3cccc4c(O)c5ccccc5c2c34)cc1,IC50,Protein Rev,1.05 µM (active)
same,IC50,[13],0.868 µM (active)
same,IC50,[14],10.6 µM (active)
O=C1Nc2ccccc2/C1=N\N=C\C1=C(N2CCOCC2)C(=C\c2ccccc2)/CC1,CC50,[15],28.2 µM (active)
same,EC50,[16],14.2 µM (active)
same,EC50,[17],16 µM (active)
same,EC50,[10],> 32 µM (inactive)
same,IC50,Nonstructural protein 1,8.08 µM (active)
